Source: patent publication US10301272B2, “Carboxamide or sulfonamide substituted thiazoles and related derivatives as modulators for the orphan nuclear receptor ROR[γ]” (Phenex Pharmaceuticals AG, priority 2012, dated 2019)
Like-named read-outs stand apart in the source and are kept apart here.

Key:
[1] = target: RORγ (Homo sapiens, UniProt P51449); assay: RORγ Gal4 Reporter Gene Assay; type: cell-based
In short: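 Cells at 5×10^5/well were transfected with RORγ fragments fused to the GAL4 DNA-binding domain (CMV promoter), a 5×GAL4-site firefly luciferase reporter and CMV-Renilla luciferase for normalization. About 4 h later serum-free MEM and compound were added (vehicle ≤0.1%). Cultures at 37 °C, 5% CO2; at least triplicates.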

[2] = target: RORγ ligand binding domain (LBD) (Homo sapiens (Human), UniProt P51449); assay: TR-FRET Activity Assay (ligand sensing assay, LANCE); conditions: for pIC50 (FRET): TR-FRET, interaction of RORγ-LBD with coactivator peptide
[3] = firefly (FF) luciferase, 293T cells
[4] = renilla normalised (RENnorm) luciferase, 293T cells
[5] = firefly (FF) luciferase, 293T cells, read-out: pIC50 (FF) (converted)
[6] = renilla normalised (RENnorm) luciferase, 293T cells, read-out: pIC50 (REN) (converted)

RORγ ligand binding domain (LBD), sequence (P51449 269-508): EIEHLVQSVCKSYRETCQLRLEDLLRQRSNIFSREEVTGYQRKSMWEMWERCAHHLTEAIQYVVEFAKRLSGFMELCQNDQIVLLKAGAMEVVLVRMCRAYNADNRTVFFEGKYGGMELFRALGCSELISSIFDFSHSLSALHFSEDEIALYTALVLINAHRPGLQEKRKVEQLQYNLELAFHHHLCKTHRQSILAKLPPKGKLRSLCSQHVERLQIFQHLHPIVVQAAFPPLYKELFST
RORγ, sequence (P51449 whole entry, looked up, the tested form may be a part): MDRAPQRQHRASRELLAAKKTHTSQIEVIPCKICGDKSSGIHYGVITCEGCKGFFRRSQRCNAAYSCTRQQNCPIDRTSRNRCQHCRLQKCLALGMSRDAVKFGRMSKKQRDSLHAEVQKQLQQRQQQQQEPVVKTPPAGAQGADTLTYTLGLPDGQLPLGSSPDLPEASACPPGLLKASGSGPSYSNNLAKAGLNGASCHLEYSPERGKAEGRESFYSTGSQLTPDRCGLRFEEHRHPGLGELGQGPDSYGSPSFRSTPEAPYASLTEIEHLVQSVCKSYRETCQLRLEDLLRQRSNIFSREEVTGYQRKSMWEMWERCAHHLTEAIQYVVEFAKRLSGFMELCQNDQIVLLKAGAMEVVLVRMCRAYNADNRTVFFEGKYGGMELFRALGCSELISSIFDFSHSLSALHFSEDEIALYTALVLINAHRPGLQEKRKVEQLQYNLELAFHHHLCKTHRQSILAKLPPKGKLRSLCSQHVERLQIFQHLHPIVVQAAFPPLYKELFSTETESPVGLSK

| SMILES | pIC50 (FF) [1] | pIC50 (REN) [1] | pIC50 (FRET) [2] | pIC50 (FF) [1, 3] | pIC50 (REN) [1, 4] | IC50 [1, 5] [µM] | IC50 [1, 6] [µM] | IC50 [2] [µM] |
| --- | --- | --- | --- | --- | --- | --- | --- | --- |
| CC(C)(C)NS(=O)(=O)c1ccc(-c2sc(C(=O)N3CC4(COC4)C3)nc2CC2CCCCC2)c(Cl)c1Cl [6/33] | 6.6/7.9/8.0 | 6.6/7.9/8.0 | 6.6/7.9/8.0 |  |  |  |  |  |
| CC(C)COc1cc(-c2sc(C(=O)N[C@H]3C[C@H](C(=O)O)C3)nc2CC2CCCCC2)cc(C(C)(C)C)n1 [7/11] | 5.9/7.4/7.4 | 5.9/7.4/7.4 | 5.9/7.4/7.4 |  |  |  |  |  |
| CC(C)(C)c1cc(-c2sc(S(N)(=O)=O)nc2CC2CCCCC2)cc(C(C)(C)C)c1 [Example 4, 4-(Cyclohexylmethyl)-5-(3,5-di-tert-butylphenyl)thiazole-2-sulfonamide] | 6.8/6.4/6.4 | 6.8/6.4/6.4 | 6.8/6.4/6.4 |  |  |  |  |  |
| CN1CCN(C(=O)c2nc(CC3CCCCC3)c(-c3ccc(S(=O)(=O)NC(C)(C)C)c4ccccc34)s2)CC1 [6/53] | 6.6/7.1/7.4 | 6.6/7.1/7.4 | 6.6/7.1/7.4 |  |  |  |  |  |
| CC(C)(C)NS(=O)(=O)c1ccc(-c2sc(C(=O)NCC3(C(N)=O)CCOCC3)nc2CC2CCCCC2)c2ccccc12 [6/3] | 6.5/8.5/8.7 | 6.5/8.5/8.7 | 6.5/8.5/8.7 |  |  |  |  |  |
| CC(C)(C)c1cc(-c2sc(C(=O)N[C@H]3C[C@H](C(=O)O)C3)nc2CC2CCCCC2)cc(C(F)F)c1 [7/5] | 6.3/7.0/7.1 | 6.3/7.0/7.1 | 6.3/7.0/7.1 |  |  |  |  |  |
| CC(C)(C)c1cc(-c2sc(C(=O)NC3CC(C(=O)O)C3)nc2CC2CCCCC2)nc(C(C)(C)C)n1 (stereo not drawn) [19/13] |  |  | 6.5 | 6.9 | 6.9 |  |  |  |
| CC(C)(C)c1cc(-c2nc(S(N)(=O)=O)sc2CC2CCCCC2)cc(C(C)(C)C)c1 [Example 2, 5-(Cyclohexylmethyl)-4-(3,5-di-tert-butylphenyl)thiazole-2-sulfonamide] | 5.9/6.1/6.0 | 5.9/6.1/6.0 | 5.9/6.1/6.0 |  |  |  |  |  |
| C[C@H](NS(=O)(=O)c1ccc(-c2sc(C(=O)NC3CCOCC3)nc2CC2CCCCC2)c2ccccc12)C(F)(F)F [6/12] |  |  |  |  |  | 0.002 | 0.002 | 0.126 |
| O=C(c1nc(CC2CCCCC2)c(-c2ccc(S(=O)(=O)N3CCOCC3)c3ccccc23)s1)N1CC2(CCS(=O)(=O)CC2)C1 [14/4] | 6.2/6.4/6.3 | 6.2/6.4/6.3 | 6.2/6.4/6.3 |  |  |  |  |  |
| CC(C)(C)NC(=O)c1cc(-c2sc(C(=O)N[C@H]3C[C@H](C(=O)O)C3)nc2CC2CCCCC2)cc(C(C)(C)C)c1 [9/7] | 6.2/7.4/7.5 | 6.2/7.4/7.5 | 6.2/7.4/7.5 |  |  |  |  |  |
| CC(C)(C)NS(=O)(=O)c1ccc(-c2sc(C(=O)NC3C[S+]([O-])C3)nc2CC2CCCCC2)cc1C(C)(C)O (stereo not drawn) [Example 15/1] | 6.7/8.0/8.0 | 6.7/8.0/8.0 | 6.7/8.0/8.0 |  |  |  |  |  |
| CC(C)(C)NS(=O)(=O)c1ccc(-c2sc(C(=O)NC3CS(=O)(=O)C3)nc2CC2CCCCC2)cc1C(C)(C)O [15/3] | 6.9/7.9/7.9 | 6.9/7.9/7.9 | 6.9/7.9/7.9 |  |  |  |  |  |
| CC1(c2cc(C(=O)NCC(F)(F)F)cc(-c3sc(C(=O)N[C@H]4C[C@H](C(=O)O)C4)nc3CC3CCCCC3)c2)CC1 [7/6] | 6.2/7.1/7.2 | 6.2/7.1/7.2 | 6.2/7.1/7.2 |  |  |  |  |  |
| CC1CC(C)CN(C(=O)c2nc(C(=O)NCC(C)(C)O)sc2-c2ccc(S(=O)(=O)NC(C)(C)C)c3ccccc23)C1 (stereo not drawn) [304/8] | 6.0/6.9/6.9 | 6.0/6.9/6.9 | 6.0/6.9/6.9 |  |  |  |  |  |
| CC(C)(C)NS(=O)(=O)c1ccc(-c2oc(C(=O)NC3CCS(=O)(=O)CC3)nc2CC2CCC2)c2ccccc12 [Example 104, 5-(4-(N-(tert-Butyl)sulfamoyl)naphthalen-1-yl)-4-(cyclobutylmethyl)-N-(1,1-dioxidotetrahydro-2H-thiopyran-4-yl)oxazole-2-carboxamide] | 6.6/7.5/7.9 | 6.6/7.5/7.9 | 6.6/7.5/7.9 |  |  |  |  |  |
| CC(C)(C)NS(=O)(=O)c1ccc(-c2sc(S(N)(=O)=O)nc2CC2CCCCC2)c2ccccc12 [13/3] | 6.6/7.5/7.7 | 6.6/7.5/7.7 | 6.6/7.5/7.7 |  |  |  |  |  |
| CC(C)(O)CNC(=O)c1nc(CC2CCCCC2)c(-c2ccc(S(=O)(=O)NC3(C)COC3)c3ccccc23)s1 [8/5] | 6.4/8.5/8.7 | 6.4/8.5/8.7 | 6.4/8.5/8.7 |  |  |  |  |  |

| SMILES | pIC50 (FF) [1] | pIC50 (REN) [1] | pIC50 (FRET) [2] | pIC50 (FF) [1, 3] | pIC50 (REN) [1, 4] | IC50 [1, 5] [µM] | IC50 [1, 6] [µM] | IC50 [2] [µM] |
| --- | --- | --- | --- | --- | --- | --- | --- | --- |
| CC(C)(C)NS(=O)(=O)c1ccc(-c2sc(C(=O)NC3CCC3)[n+]([O-])c2CC2CCCCC2)c2ccccc12 [Example 22/1] |  |  | 6.4 | 7.5 | 7.5 |  |  |  |
| CC(C)(C)c1cc(-c2oc(C(=O)N[C@H]3C[C@H](C(=O)O)C3)nc2CC2CCCCC2)cc(C2(C)CC2)c1 [100/20] | 6.0/6.8/7.0 | 6.0/6.8/7.0 | 6.0/6.8/7.0 |  |  |  |  |  |
| COC(=O)C(C)(C)CCNC(=O)c1nc(CC2CCCCC2)c(-c2cc(C(C)(C)C)cc(C3(C)CC3)c2)s1 [Example 6, Methyl 4-(5-(3-(tert-butyl)-5-(1-methylcyclopropyl)phenyl)-4-(cyclohexylmethyl)thiazole-2-carboxamido)-2,2-dimethylbutanoate] | 6.7/6.2/6.3 | 6.7/6.2/6.3 | 6.7/6.2/6.3 |  |  |  |  |  |
| CC(C)(C)NS(=O)(=O)c1ccc(-c2sc(C(=O)N[C@H]3C[C@H](C(=O)O)C3)nc2CC2CCCCC2)c(F)c1C(F)F [7/15] | 6.7/8.7/8.5 | 6.7/8.7/8.5 | 6.7/8.7/8.5 |  |  |  |  |  |
| CC(C)(C)NS(=O)(=O)c1ccc(-c2oc(C(=O)NC3CCS(=O)(=O)CC3)nc2CC2CCCCC2)c2ccccc12 [100/6] | 6.4/8.5/8.4 | 6.4/8.5/8.4 | 6.4/8.5/8.4 |  |  |  |  |  |
| CC(C)(C)c1cc(-c2sc(S(=O)(=O)NC(=O)OCc3ccccc3)nc2CC2CCCCC2)cc(C2(C)CC2)c1 [Example 12, Benzyl (5-(3-(tert-butyl)-5-(1-methylcyclopropyl)phenyl)-4-(cyclohexylmethyl)thiazol-2-yl)sulfonylcarbamate] |  |  | 5.5 |  |  | > 20 | > 20 |  |
| CC(C)(C)c1cc(-c2sc(C(=O)N[C@H]3C[C@H](C(=O)O)C3)nc2CC2CCCCC2)cc(C(C)(C)F)c1 [Example 24, (trans)-3-(5-(3-(tert-Butyl)-5-(2-fluoropropan-2-yl)phenyl)-4-(cyclohexylmethyl)thiazole-2-carboxamido)cyclobutanecarboxylic acid] |  |  |  | 7.5 | 7.5 |  |  | 0.316 |
| CC(C)(C)NS(=O)(=O)c1ccc(-c2oc(C(=O)NCC3(O)CCOCC3)nc2CC2CCCCC2)c2ccccc12 [100/5] | 6.3/8.1/8.2 | 6.3/8.1/8.2 | 6.3/8.1/8.2 |  |  |  |  |  |
| CC(C)(O)CC(=O)Nc1nc(CC2CCCCC2)c(-c2ccc(S(=O)(=O)NC(C)(C)C)c(C(F)(F)F)c2)s1 [Example 200, N-(5-(4-(N-(tert-Butyl)sulfamoyl)-3-(trifluoromethyl)phenyl)-4-(cyclohexylmethyl)thiazol-2-yl)-3-hydroxy-3-methylbutanamide] | 6.6/7.5/7.8 | 6.6/7.5/7.8 | 6.6/7.5/7.8 |  |  |  |  |  |
| CC(C)(C)NS(=O)(=O)c1ccc(-c2oc(C(=O)NCC3(O)CCS(=O)(=O)CC3)nc2CC2CCCCC2)c2ccccc12 [100/8] | 6.5/8.0/8.2 | 6.5/8.0/8.2 | 6.5/8.0/8.2 |  |  |  |  |  |
| CC(=O)NS(=O)(=O)c1nc(-c2cc(C(C)(C)C)cc(C(C)(C)C)c2)c(CC2CCCCC2)s1 [Example 3, N-((5-(Cyclohexylmethyl)-4-(3,5-di-tert-butylphenyl)thiazol-2-yl)sulfonyl)acetamide] |  |  | 5.1 |  |  | > 20 | > 20 |  |
| CC(C)(C)NS(=O)(=O)c1ccc(-c2oc(C(=O)NC34CCC(C(=O)O)(CC3)C4)nc2CC2CCCCC2)c2ccccc12 [100/23] | 6.1/8.3/8.4 | 6.1/8.3/8.4 | 6.1/8.3/8.4 |  |  |  |  |  |
| CC(C)(C)NS(=O)(=O)c1ccc(-c2sc(C(=O)NC3CC3)nc2CC2CCCCC2)c(Cl)c1Cl [6/31] | 7.3/8.0/8.0 | 7.3/8.0/8.0 | 7.3/8.0/8.0 |  |  |  |  |  |
| CC(C)(C)NS(=O)(=O)c1ccc(-c2sc(C(=O)NCCC(C)(C)C(=O)O)nc2CC2CCCCC2)cc1C(F)(F)F [Example 9/1] | 6.5/7.4/7.4 | 6.5/7.4/7.4 | 6.5/7.4/7.4 |  |  |  |  |  |
| CC(C)(O)CNC(=O)c1nc(CC2CCCCC2)c(-c2ccc(S(N)(=O)=O)c(Cl)c2Cl)s1 [Example 17, 4-(Cyclohexylmethyl)-5-(2,3-dichloro-4-sulfamoylphenyl)-N-(2-hydroxy-2-methylpropyl)thiazole-2-carboxamide] |  |  | 5.0 |  |  | > 20 | > 20 |  |
| CC(C)(C)NS(=O)(=O)c1ccc(-c2oc(C(=O)NC34CCC(C(=O)O)(CC3)CC4)nc2CC2CCCCC2)c2ccccc12 [100/14] | 5.8/7.9/7.9 | 5.8/7.9/7.9 | 5.8/7.9/7.9 |  |  |  |  |  |
| CC(C)(C)NS(=O)(=O)c1ccc(-c2sc(C(=O)NCCC(C)(C)C(=O)O)nc2CC2CCCCC2)cc1C(C)(C)C [Example 7/1] | 6.1/6.8/6.9 | 6.1/6.8/6.9 | 6.1/6.8/6.9 |  |  |  |  |  |
| CC(C)(C)NS(=O)(=O)c1ccc(-c2sc(C(=O)NC3CCS(=O)(=O)CC3)nc2CC2CCCCC2)c2ccccc12 [6/6] | 6.7/9.0/9.0 | 6.7/9.0/9.0 | 6.7/9.0/9.0 |  |  |  |  |  |
